We go through 1 molecule from patent publication US20240060989A1, “METHODS FOR MEASURING CRALBP ACTIVITY” (NOVARTIS AG, priority 2019, published 2024).

This assay has as its target T1, human CRALBP protein (Homo sapiens, UniProt P12271).
T1 construct: purchased GeneTex GTX109228-pro
The experiment in a line: CRALBP binding assay, Biacore surface plasmon resonance (proteinA/G capture). The following applies: for Ka: 1:1 binding model, Biacore T200. How it is done:
Binding of 11-cis-retinol to human CRALBP protein was assessed for affinity determinations using Biacore. Kinetic rate constants was performed via surface plasmon resonance (SPR) using the Biacore T200 instrument (Cytiva, formerly GE Healthcare Lifesciences) as described below. The proteinA/G capture method was utilized in order to determine kinetics for 11-cis-retinol.
Recombinant proteinA/G (PIERCE, Cat #21186) was immobilized on the chip surface by using amino-coupling procedure according to the supplier's instruction (Cytiva, BR-1000-50). This immobilized proteinA/G captured commercial anti-CRALBP mouse IgG (Sigma, WH0006017M1, lot #11319-1H7), which then captured human CARLBP protein (GeneTex, GTX109228-pro, lot #42226) on chip surface. The 11-cis-retinol (Biosynth Carbosynth, FR163659) flowed over as analyte.
The 11-cis-retinol concentration started at […] and was serially diluted at one part to one part for five levels of concentration. Regeneration was performed at the end of each cycle using Glycine-HCl pH2.0 (Cytiva, BR-1003-55). The sample dilution step and Biacore experiment were performed either under ambient light or dark condition in which the Biacore sample compartment door was covered by aluminum foil.
Double reference subtraction was completed to generate final data. Kinetic rate constants was obtained by applying 1:1 binding model with Biacore T200 evaluation 3.0 software, wherein the Rmax values were fit locally. Binding was assess under dark and ambient light conditions.
A general note: Surface plasmon resonance follows binding to a sensor surface in real time, without labels.

Each structure is given as a SMILES string.

T1 sequence (P12271 whole entry): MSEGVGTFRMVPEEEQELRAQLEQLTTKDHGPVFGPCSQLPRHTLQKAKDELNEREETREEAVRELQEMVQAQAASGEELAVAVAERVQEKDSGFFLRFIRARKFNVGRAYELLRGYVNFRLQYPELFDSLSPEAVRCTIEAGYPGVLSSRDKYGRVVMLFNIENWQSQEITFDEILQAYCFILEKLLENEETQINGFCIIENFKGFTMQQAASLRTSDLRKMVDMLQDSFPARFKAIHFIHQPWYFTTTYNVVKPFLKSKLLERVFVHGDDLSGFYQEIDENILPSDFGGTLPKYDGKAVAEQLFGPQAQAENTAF

Regarding `CC1=C(/C=C/C(C)=C/C=C\C(C)=C\CO)C(C)(C)CCC1` [11-cis-retinol], the “binding to human CRALBP” value is, setting by setting: (ambient light (FIG. 2A)) “able to bind”; (dark (FIG. 2B)) “able to bind”. The Ka worked out at 12.69 M⁻¹ s⁻¹ (ambient light) and 21.03 M⁻¹ s⁻¹ (dark).
